Results: patent publication US20220389061A1, “IMMUNOMODULATORS” (priority 2019, published 2022)
Read-outs that look alike come from different tables or passages of the source. Starred links: 1 amine or outer side, 2 acyl side, 3 side chain; linkers in the order of their positions; H or OH if unused. Positions of bridges follow the written chain, without caps; N, C: chain ends. Non-standard residues stand in square brackets, D forms with d. Residues, ends and D or L forms follow the SMILES beside them. Groups on a side chain read outwards from the residue. *: point of attachment. Trp(1-CH2COOH) = N[C@@H](Cc1cn(CC(=O)O)c2ccccc12)C(=O)O; X57 = O=C([C@H](CN/C(=N/c1ccccc1)c1ccccc1)N[*:1])[*:2]; NH(3,5-Cl2-phenyl) = Clc1cc(Cl)cc(N*)c1; Hyp = O=C(O)[C@@H]1C[C@@H](O)CN1; X10 = S=C(Nc1ccc(N2CCOCC2)cc1)*; X11 = S=C(Nc1ccccc1-c1ccccc1)*; NMeNle = CCCC[C@H](NC)C(=O)O; X74 = Cc1cc(C)c(N*)c(C)c1; NMeA = CN[C@@H](C)C(=O)O; Dab = NCC[C@H](N)C(=O)O; Dap = NC[C@H](N)C(=O)O; CO = O=C([*:1])[*:2]

Target: T1, PD-1/PD-L1 (Homo sapiens, UniProt Q9NZQ7)
T1 construct: TVMV protease site linker (C); made in house; host or cells: HEK293T cells
T1 sequence (Q9NZQ7 18-239): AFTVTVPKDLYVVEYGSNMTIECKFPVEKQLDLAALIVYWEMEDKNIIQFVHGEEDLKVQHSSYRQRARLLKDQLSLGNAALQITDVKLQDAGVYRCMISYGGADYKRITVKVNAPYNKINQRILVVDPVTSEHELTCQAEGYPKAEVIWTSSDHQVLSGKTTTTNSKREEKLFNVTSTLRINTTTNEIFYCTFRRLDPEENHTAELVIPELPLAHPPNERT
Experiment: PD-1/PD-L1 Homogenous Time-Resolved Fluorescence (HTRF) binding assay
How it was run: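 HTRF read-out using europium cryptate anti-Ig (1 nM) and APC anti-His (20 nM) on extracellular-domain fusion proteins in dPBS/0.1% BSA/0.05% Tween-20. Inhibitor first incubated 15 min with 10 nM PD-L1-His, followed by 20 nM PD-1-Ig for another 15 min.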

[1] = PD-L1-His 10 nM pre-incubated with inhibitor, PD-1-Ig 20 nM, read-out: HTRF IC50

| Structure (SMILES) | IC50 [1] | IC50 |
| --- | --- | --- |
| CCCC[C@H]1C(=O)N(C)[C@@H](CCCC)C(=O)N[C@@H](CC(C)C)C(=O)N[C@H](C(=O)NCC(N)=O)CSCC(=O)N[C@@H](Cc2ccc(O)cc2)C(=O)N(C)[C@@H](C)C(=O)N[C@@H](CC(N)=O)C(=O)N2CCC[C@H]2C(=O)N[C@@H](CN/C(=N/c2ccccc2)c2ccccc2)C(=O)N[C@@H](CC(C)C)C(=O)N2C[C@H](O)C[C@H]2C(=O)N[C@@H](Cc2c[nH]c3ccccc23)C(=O)N[C@@H](CCN)C(=O)N[C@@H](Cc2cn(CC(=O)O)c3ccccc23)C(=O)N1C [Example 1018] ({CH2CO}-Y[NMeA]NP[X57]L[Hyp]W[Dab][Trp(1-CH2COOH)][NMeNle][NMeNle]LCG-NH2; thioether N-14) | 9.98 nM | – |
| CCCC[C@H]1C(=O)N(C)[C@@H](CCCC)C(=O)N[C@@H](CC(C)C)C(=O)N[C@H](C(=O)NCC(N)=O)CSCC(=O)N[C@@H](Cc2ccc(O)cc2)C(=O)N(C)[C@@H](C)C(=O)N[C@@H](CC(N)=O)C(=O)N2CCC[C@H]2C(=O)N[C@@H](CNC(=O)Nc2c(C)cc(C)cc2C)C(=O)N[C@@H](CC(C)C)C(=O)N2C[C@H](O)C[C@H]2C(=O)N[C@@H](Cc2c[nH]c3ccccc23)C(=O)N[C@@H](CCN)C(=O)N[C@@H](Cc2cn(CC(=O)O)c3ccccc23)C(=O)N1C [Example 1066] ({CH2CO}-Y[NMeA]NP[Dap]([CO-X74])L[Hyp]W[Dab][Trp(1-CH2COOH)][NMeNle][NMeNle]LCG-NH2; thioether N-14) | 2.9 nM | – |
| CCCC[C@H]1C(=O)N(C)[C@@H](CCCC)C(=O)N[C@@H](CC(C)C)C(=O)N[C@H](C(=O)NCC(N)=O)CSCC(=O)N[C@@H](Cc2ccc(O)cc2)C(=O)N(C)[C@@H](C)C(=O)N[C@@H](CC(N)=O)C(=O)N2CCC[C@H]2C(=O)N[C@@H](CNC(=O)Nc2cc(Cl)cc(Cl)c2)C(=O)N[C@@H](CC(C)C)C(=O)N2C[C@H](O)C[C@H]2C(=O)N[C@@H](Cc2c[nH]c3ccccc23)C(=O)N[C@@H](CCN)C(=O)N[C@@H](Cc2cn(CC(=O)O)c3ccccc23)C(=O)N1C [Example 1068] ({CH2CO}-Y[NMeA]NP[Dap]([CO-NH(3,5-Cl2-phenyl)])L[Hyp]W[Dab][Trp(1-CH2COOH)][NMeNle][NMeNle]LCG-NH2; thioether N-14) | – | 4.3 nM |

Further lines, with some results ahead:

| IC50 [1] | Structure (SMILES) | IC50 |
| --- | --- | --- |
| 0.6 nM | CCCC[C@H]1C(=O)N(C)[C@@H](CCCC)C(=O)N[C@@H](CC(C)C)C(=O)N[C@H](C(=O)NCC(N)=O)CSCC(=O)N[C@@H](Cc2ccc(O)cc2)C(=O)N(C)[C@@H](C)C(=O)N[C@@H](CC(N)=O)C(=O)N2CCC[C@H]2C(=O)N[C@@H](CNC(=S)Nc2ccccc2-c2ccccc2)C(=O)N[C@@H](CC(C)C)C(=O)N2C[C@H](O)C[C@H]2C(=O)N[C@@H](Cc2c[nH]c3ccccc23)C(=O)N[C@@H](CCNC(=S)Nc2ccccc2-c2ccccc2)C(=O)N[C@@H](Cc2cn(CC(=O)O)c3ccccc23)C(=O)N1C [Example 1128] ({CH2CO}-Y[NMeA]NP[Dap](X11)L[Hyp]W[Dab](X11)[Trp(1-CH2COOH)][NMeNle][NMeNle]LCG-NH2; thioether N-14) | – |
| 3 nM | CCCC[C@H]1C(=O)N(C)[C@@H](CCCC)C(=O)N[C@@H](CC(C)C)C(=O)N[C@H](C(=O)NCC(N)=O)CSCC(=O)N[C@@H](Cc2ccc(O)cc2)C(=O)N(C)[C@@H](C)C(=O)N[C@@H](CC(N)=O)C(=O)N2CCC[C@H]2C(=O)N[C@@H](CNC(=S)Nc2ccc(N3CCOCC3)cc2)C(=O)N[C@@H](CC(C)C)C(=O)N2C[C@H](O)C[C@H]2C(=O)N[C@@H](Cc2c[nH]c3ccccc23)C(=O)N[C@@H](CCNC(=S)Nc2ccc(N3CCOCC3)cc2)C(=O)N[C@@H](Cc2cn(CC(=O)O)c3ccccc23)C(=O)N1C [Example 1127] ({CH2CO}-Y[NMeA]NP[Dap](X10)L[Hyp]W[Dab](X10)[Trp(1-CH2COOH)][NMeNle][NMeNle]LCG-NH2; thioether N-14) | – |
